Source: publication PMC7724566, “Prospects for Clinical Development of Stat5 Inhibitor IST5-002: High Transcriptomic Specificity in Prostate Cancer and Low Toxicity In Vivo” (Cancers, 2020)

Key:
DDR2 = target: T1, DDR2 (Homo sapiens, UniProt Q16832); assay: Kinase Seeker luminescence cell-free assay; type: binding; conditions: percent activity of kinase after exposure to IST5 1 µM
T1 construct: purchased Reaction Biology (JAK1/2/3, TYK2); Luceome Biotechnologies KinaseSeeker (others)
Protocol: (§1) For Jak1, Jak2, Jak3 and Tyk2, a radiometric filtration binding assay was conducted by Reaction Biologicals (Malvern, PA, USA) (Table 1). This radiometric assay is a cell-free assay which is based on conventional filter-binding assays, directly measuring kinase catalytic activity toward a specific substrate. For evaluation of the activity of the other kinases, the Kinase Seeker Technology was utilized (Luceome Biotechnologies, Tucson, AZ, USA), which is a luminescence-based cell-free assay. In this assay, the reassembly of luciferase fragments is mediated by the interaction of a kinase with an active site-dependent probe. The competitive displacement of the probe by an inhibitor is measured by a change in luminescence signal. Percent activity of each kinase after exposure to IST5 (1 µM) is presented.

PYK2 = target: T2, PYK2 (Homo sapiens, UniProt Q14289); assay: Kinase Seeker luminescence cell-free assay; type: binding; conditions: percent activity of kinase after exposure to IST5 1 µM
T2 construct: purchased Reaction Biology (JAK1/2/3, TYK2); Luceome Biotechnologies KinaseSeeker (others)
Protocol: as §1

PDGFRA = target: T3, PDGFRA (Homo sapiens, UniProt P16234); assay: Kinase Seeker luminescence cell-free assay; type: binding; conditions: percent activity of kinase after exposure to IST5 1 µM
T3 construct: purchased Reaction Biology (JAK1/2/3, TYK2); Luceome Biotechnologies KinaseSeeker (others)
T3 sequence (P16234 24-1089): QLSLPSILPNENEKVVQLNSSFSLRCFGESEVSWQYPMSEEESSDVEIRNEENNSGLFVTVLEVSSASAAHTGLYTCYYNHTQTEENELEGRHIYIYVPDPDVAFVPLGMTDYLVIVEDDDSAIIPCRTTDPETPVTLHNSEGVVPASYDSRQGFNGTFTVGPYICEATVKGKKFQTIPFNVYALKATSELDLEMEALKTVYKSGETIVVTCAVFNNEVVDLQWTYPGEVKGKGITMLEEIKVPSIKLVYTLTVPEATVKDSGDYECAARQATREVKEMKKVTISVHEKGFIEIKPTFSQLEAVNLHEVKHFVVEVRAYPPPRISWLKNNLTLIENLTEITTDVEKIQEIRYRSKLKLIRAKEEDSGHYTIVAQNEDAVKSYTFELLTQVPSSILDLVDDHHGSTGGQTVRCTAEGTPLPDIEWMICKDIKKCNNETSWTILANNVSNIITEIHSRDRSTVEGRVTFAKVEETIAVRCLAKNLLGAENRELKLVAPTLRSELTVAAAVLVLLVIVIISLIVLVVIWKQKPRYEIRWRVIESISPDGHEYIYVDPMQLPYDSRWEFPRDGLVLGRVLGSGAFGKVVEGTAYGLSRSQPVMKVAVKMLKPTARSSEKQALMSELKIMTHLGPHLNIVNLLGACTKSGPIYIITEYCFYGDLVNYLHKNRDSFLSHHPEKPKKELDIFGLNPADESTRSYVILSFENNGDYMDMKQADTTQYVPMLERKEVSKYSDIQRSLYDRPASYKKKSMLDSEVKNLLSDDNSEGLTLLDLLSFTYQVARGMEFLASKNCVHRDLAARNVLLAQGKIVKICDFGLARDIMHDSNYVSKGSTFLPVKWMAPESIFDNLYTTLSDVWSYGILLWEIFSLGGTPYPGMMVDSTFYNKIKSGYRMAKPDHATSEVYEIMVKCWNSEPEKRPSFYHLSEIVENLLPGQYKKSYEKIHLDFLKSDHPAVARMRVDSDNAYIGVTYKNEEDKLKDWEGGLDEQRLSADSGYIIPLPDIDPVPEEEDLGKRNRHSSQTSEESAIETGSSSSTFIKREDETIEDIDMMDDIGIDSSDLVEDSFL
Protocol: as §1

AKT1 = target: T4, AKT1 (Homo sapiens, UniProt P31749); assay: Kinase Seeker luminescence cell-free assay; type: binding; conditions: percent activity of kinase after exposure to IST5 1 µM
T4 construct: purchased Reaction Biology (JAK1/2/3, TYK2); Luceome Biotechnologies KinaseSeeker (others)
T4 sequence (P31749 whole entry): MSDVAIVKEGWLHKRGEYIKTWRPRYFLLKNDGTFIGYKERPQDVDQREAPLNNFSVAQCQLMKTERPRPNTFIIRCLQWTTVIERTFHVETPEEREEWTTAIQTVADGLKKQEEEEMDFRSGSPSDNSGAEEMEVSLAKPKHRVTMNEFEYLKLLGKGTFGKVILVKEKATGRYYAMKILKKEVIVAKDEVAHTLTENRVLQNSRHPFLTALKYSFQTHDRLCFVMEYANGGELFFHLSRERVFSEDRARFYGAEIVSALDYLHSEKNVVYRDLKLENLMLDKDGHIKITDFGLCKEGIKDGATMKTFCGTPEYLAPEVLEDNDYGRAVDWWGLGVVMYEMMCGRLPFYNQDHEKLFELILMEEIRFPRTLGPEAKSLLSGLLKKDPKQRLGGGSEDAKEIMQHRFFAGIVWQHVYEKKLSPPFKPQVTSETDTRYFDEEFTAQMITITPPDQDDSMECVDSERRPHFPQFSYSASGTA
Protocol: as §1

DDR1 = target: T5, DDR1 (Homo sapiens, UniProt Q08345); assay: Kinase Seeker luminescence cell-free assay; type: binding; conditions: percent activity of kinase after exposure to IST5 1 µM
T5 construct: purchased Reaction Biology (JAK1/2/3, TYK2); Luceome Biotechnologies KinaseSeeker (others)
T5 sequence (Q08345 19-913): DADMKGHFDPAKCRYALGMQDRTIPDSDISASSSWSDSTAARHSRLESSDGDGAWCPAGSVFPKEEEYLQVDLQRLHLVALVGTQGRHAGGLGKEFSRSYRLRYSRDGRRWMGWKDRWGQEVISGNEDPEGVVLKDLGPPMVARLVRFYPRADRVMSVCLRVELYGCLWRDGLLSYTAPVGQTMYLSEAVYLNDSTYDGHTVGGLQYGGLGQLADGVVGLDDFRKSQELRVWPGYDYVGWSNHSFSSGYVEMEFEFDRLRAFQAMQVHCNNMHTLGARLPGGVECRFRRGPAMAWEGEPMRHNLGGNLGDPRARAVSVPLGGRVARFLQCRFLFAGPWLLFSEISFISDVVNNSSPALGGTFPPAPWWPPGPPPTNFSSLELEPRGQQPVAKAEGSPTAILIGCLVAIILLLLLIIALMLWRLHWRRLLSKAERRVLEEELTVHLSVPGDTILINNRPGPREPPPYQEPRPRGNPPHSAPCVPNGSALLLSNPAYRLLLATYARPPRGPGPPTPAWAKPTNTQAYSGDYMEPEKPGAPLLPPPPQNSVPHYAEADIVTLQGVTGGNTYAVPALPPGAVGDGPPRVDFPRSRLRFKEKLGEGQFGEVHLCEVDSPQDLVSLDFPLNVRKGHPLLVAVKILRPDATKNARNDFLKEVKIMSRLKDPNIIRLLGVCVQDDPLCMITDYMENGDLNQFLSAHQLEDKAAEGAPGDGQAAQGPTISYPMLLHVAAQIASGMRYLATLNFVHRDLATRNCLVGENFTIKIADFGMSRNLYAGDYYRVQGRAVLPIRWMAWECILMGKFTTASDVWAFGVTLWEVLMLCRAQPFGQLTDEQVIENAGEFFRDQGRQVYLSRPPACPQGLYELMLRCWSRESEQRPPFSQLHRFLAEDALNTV
Protocol: as §1

ABL1 = target: T6, ABL1 (Homo sapiens, UniProt P00519); assay: Kinase Seeker luminescence cell-free assay; type: binding; conditions: percent activity of kinase after exposure to IST5 1 µM
T6 construct: purchased Reaction Biology (JAK1/2/3, TYK2); Luceome Biotechnologies KinaseSeeker (others)
T6 sequence (P00519 whole entry): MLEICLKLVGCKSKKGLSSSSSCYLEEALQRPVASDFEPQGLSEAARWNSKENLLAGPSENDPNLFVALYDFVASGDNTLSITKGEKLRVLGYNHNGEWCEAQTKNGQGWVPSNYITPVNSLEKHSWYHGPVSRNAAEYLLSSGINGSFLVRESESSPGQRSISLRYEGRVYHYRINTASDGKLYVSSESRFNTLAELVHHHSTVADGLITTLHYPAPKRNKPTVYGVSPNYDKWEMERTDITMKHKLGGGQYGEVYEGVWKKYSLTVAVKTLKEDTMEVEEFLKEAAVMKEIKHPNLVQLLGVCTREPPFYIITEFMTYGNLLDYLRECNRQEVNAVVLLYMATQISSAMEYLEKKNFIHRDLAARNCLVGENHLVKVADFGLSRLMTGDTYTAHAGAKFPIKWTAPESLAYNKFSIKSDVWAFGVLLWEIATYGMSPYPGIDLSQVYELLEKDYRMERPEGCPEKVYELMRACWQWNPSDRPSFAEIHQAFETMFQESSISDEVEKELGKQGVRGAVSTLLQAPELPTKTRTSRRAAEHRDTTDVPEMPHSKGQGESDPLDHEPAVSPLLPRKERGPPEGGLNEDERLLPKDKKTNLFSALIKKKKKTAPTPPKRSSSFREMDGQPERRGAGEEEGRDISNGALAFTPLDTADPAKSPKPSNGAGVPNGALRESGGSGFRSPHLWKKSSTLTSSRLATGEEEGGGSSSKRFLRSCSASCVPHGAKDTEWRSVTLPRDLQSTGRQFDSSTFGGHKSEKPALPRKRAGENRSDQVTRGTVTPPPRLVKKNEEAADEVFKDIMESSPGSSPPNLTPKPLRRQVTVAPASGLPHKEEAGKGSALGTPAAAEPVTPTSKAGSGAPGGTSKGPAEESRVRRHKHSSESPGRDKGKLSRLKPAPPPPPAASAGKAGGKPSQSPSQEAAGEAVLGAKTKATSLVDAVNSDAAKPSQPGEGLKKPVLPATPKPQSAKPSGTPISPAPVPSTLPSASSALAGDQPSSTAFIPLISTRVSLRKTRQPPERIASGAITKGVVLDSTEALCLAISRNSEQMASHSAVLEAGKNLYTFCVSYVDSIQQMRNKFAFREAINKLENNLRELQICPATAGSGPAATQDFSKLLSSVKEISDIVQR
Protocol: as §1

Stat5 = Stat5 phosphorylation in CWR22Rv1 cells (IP/immunoblot); type: cell-based, human; conditions: 4 days
Protocol: In order to evaluate whether the phosphate group of IST5 is critical for IST5 activity in cell-based assays, we compared the potency of IST5 (Figure 4A) to that of IST5-M (IST5 without the phosphate group) (Figure 4B) in inhibiting phosphorylation of Stat5 in PC and CML cells. CML (K562) cells and PC (CWR22Rv1) cells were cultured for 4 days with increasing concentrations of IST5 and IST5-M (Figure 4C,D). […] Collectively, these finding indicate that IST5 and IST5-M have similar efficacies in inhibiting phosphorylation of Stat5 in both CML and PC cells.
Figure 4 IST5 and the IST5-derivative lacking the phosphate group (IST5-M), both, inhibit Stat5 phosphorylation in CML and prostate cancer cell line with high efficacy. (A), chemical structure of IST5-002 (IST5). (B), chemical structure of IST5-M (IST5 without the phosphate group. (C), IST5 and IST5-M both inhibit Stat5 phosphorylation in CML cells (K562) with high efficacy. K562 cells were treated with IST5 and IST5-M for 4 days at the concentrations indicated. Whole cell lysates (WCL) were immunoblotted with anti-pYStat5 mAb, anti-Stat5 mAb and anti-actin mAb as loading control. (D), IST5 and IST5-M, both, decrease Stat5 phosphorylation in PC cells (CWR22Rv1). CWR22Rv1 cells were treated with increasing concentrations of IST5 and IST5-M for 4 days. Stat5 was immunoprecipitated (IP) followed by immunoblotting (WB) with anti-pYStat5 mAb and anti-Stat5 mAb. Whole cell lysates (WCL) were immunoblotted with anti-actin mAb as loading control.
Cell pellets were solubilized in the lysis buffer (10 mM Tris-HCl (pH 7.6), 5 mM EDTA, 50 mM sodium chloride, 30 mM sodium pyrophosphate, 50 mM sodium fluoride, 1 mM sodium orthovanadate, 1% Triton X-100, 1 mM phenylmethylsulfonyl fluoride, 5 µg/mL aprotinin, 1 µg/mL pepstatin A and 2 µg/mL leupeptin), and protein concentrations of clarified cell lysates were determined by a simplified Bradford method (Bio-Rad, Hercules, CA, USA). The whole cell lysates were immunoprecipitated with polyclonal antibodies (Table S1) followed by incubation with protein A-Sepharose beads (GE Healthcare, Chicago, IL, USA). The cell lysates and immunoprecipitated proteins were separated on 4–12% SDS-PAGE (Life Technologies, Brown Deer, WI, USA) and transferred electrophoretically to polyvinylidene fluoride membrane (Millipore). For immunoblotting, blocking buffer was tris-buffered saline and tween 20 (TBST, 0.15 M NaCl; 0.1% Tween 20; 50 mM Tris, pH 8.0) with 3% bovine serum albumin (BSA). The immunoreaction with the specific antibodies (Table S1) was detected by horseradish peroxidase-conjugated secondary antibodies followed by enhanced chemiluminescence (GE Healthcare).

PC xenograft tumors = system: PC xenograft tumors; set-up: method as in PMID 18316550, PMID 23942095, PMID 26362718, PMID 20966544, PMID 20233708; conditions: cited from earlier work
C57BL/6j mice = assay: Sub-chronic toxicity study (10 days), plasma biochemistry; type: in vivo; conditions: daily i.p. 10 days; for A-G Ratio / ALT / AST / Albumin / Alk.Ptase / Bile Acid / Chol / TBIL / Globulin / BUN: plasma; for Globulin: in g/dL (unit assumed); for BUN: in mg/dL (unit assumed)
Protocol: The sub-chronic toxicity study (10 days) was carried out in C57BL/6J mice (8 weeks) (stock 000664) (n = 10/dose group 5 of each sex). IST5 was administered daily (0, 10, 30 and 100 mg/kg) via i.p. injection. Vehicle (0 mg/kg) group mice received a single i.p. injection of 0.3% hydroxypropyl cellulose. Plasma samples were analyzed for aspartate aminotransferase (AST), alanine aminotransferase (ALT), sorbitol dehydrogenase (SDH), alkaline phosphatase (ALP), γ-lutamyltransferase (GGT), lactate dehydrogenase (LDH), bilirubin (TBIL), protein (TP), glucose (GLU), blood urea nitrogen (BUN), creatinine (CREAT), and electrolytes (Na, K, Cl, Ca, CO2) (Marshfield Labs, WI, USA). A detailed hematological analysis was carried out on the sub-mandibular blood samples of mice collected at the end of the protocol and analyzed for white blood cells, red blood cells, hemoglobin, lymphocyte counts, monocytes, eosinophils and granulocytes. Brain, liver, heart, kidney and spleen were harvested, weighed and fixed in 10% buffered formalin and processed for histopathological analysis. In histopathological analysis, gross morphology and ultra-structural change were assessed. The clinical chemistry parameters measured were the same as those used for the acute toxicity study.

T1 sequence (Q16832 22-855): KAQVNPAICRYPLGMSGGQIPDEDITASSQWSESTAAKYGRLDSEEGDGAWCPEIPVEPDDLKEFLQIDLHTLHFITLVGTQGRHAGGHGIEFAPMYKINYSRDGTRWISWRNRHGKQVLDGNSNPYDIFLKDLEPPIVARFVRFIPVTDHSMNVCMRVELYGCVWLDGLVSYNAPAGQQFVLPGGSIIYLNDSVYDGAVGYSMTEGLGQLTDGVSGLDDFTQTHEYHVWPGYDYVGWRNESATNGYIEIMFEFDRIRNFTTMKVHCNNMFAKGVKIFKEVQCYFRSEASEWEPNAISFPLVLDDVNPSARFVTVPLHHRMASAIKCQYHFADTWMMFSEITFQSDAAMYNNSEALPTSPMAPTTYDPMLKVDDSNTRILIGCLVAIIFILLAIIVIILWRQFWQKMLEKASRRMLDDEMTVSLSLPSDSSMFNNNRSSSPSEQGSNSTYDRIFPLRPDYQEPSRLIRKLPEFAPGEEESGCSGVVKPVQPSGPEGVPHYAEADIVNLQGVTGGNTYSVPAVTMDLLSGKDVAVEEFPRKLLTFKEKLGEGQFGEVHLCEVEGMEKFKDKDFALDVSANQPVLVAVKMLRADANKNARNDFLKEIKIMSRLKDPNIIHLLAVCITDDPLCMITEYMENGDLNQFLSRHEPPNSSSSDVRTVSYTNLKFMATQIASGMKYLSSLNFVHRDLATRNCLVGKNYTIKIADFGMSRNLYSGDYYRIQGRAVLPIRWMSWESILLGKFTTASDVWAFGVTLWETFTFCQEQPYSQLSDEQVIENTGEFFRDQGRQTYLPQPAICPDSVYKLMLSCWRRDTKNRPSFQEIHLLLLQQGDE

For `O=P(O)(O)OCC1OC(n2cnc3c(NCc4ccccc4)ncnc32)C(O)C1O` (stereo not drawn) [IST5], the Activity (DDR2) was 97.4%, the Activity (PYK2) was 95.7% and the Activity (PDGFRA) was 100.0%. The Activity (AKT1) was 100.0%, the Activity (DDR1) was 89.3% and the Activity (ABL1) was 88.3%. For the same compound, the “inhibition of Stat5 phosphorylation” value (Stat5; 2 µM, CWR22Rv1 cells) was 60–75%, the IC50 (Stat5; read-out: IC50, inhibition of Stat5 phosphorylation, CWR22Rv1 PC cells) was about 1.3 µM and the “growth of PC xenograft tumors in mice in vivo” value (PC xenograft tumors) was “block growth”. The BW (C57BL/6j mice; 10 mg/kg) was 22.5 ± 1.1 gm, the HCT (C57BL/6j mice; 10 mg/kg) was 0.43 ± 0.02 L/L and the A-G Ratio (C57BL/6j mice; 10 mg/kg) was 1.93 ± 0.08. It also gave an ALT (C57BL/6j mice; 10 mg/kg) of 50.4 ± 3.71 U/L, an AST (C57BL/6j mice; 10 mg/kg) of 329.9 ± 30.9 U/L and an Albumin (C57BL/6j mice; 10 mg/kg) of 2.69 ± 0.05 g/dL. The Alk.Ptase (C57BL/6j mice; 10 mg/kg) was 51.3 ± 0.72 U/L, the “Bile Acid” value (C57BL/6j mice; 10 mg/kg) was 21.0 ± 12.7 µmol/dL and the Chol (C57BL/6j mice; 10 mg/kg) was 65.0 ± 2.09 mg/dL. For the same compound, the TBIL (C57BL/6j mice; 10 mg/kg) was 0.26 ± 0.02 mg/dL, the Globulin (C57BL/6j mice; 10 mg/kg) was 1.41 ± 0.04 and the BUN (C57BL/6j mice; 10 mg/kg) was 20.5 ± 0.82. It also gave a BW (C57BL/6j mice; 30 mg/kg) of 23.5 ± 0.6 gm, an HCT (C57BL/6j mice; 30 mg/kg) of 0.45 ± 0.01 L/L and an A-G Ratio (C57BL/6j mice; 30 mg/kg) of 1.9 ± 0.11. It also gave an ALT (C57BL/6j mice; 30 mg/kg) of 45.2 ± 3.76 U/L, an AST (C57BL/6j mice; 30 mg/kg) of 336 ± 57.1 U/L and an Albumin (C57BL/6j mice; 30 mg/kg) of 2.74 ± 0.07 g/dL. The Alk.Ptase (C57BL/6j mice; 30 mg/kg) was 53.0 ± 1.93 U/L, the “Bile Acid” value (C57BL/6j mice; 30 mg/kg) was 2.39 ± 0.32 µmol/dL and the Chol (C57BL/6j mice; 30 mg/kg) was 70.3 ± 1.38 mg/dL. It also gave a TBIL (C57BL/6j mice; 30 mg/kg) of 0.21 ± 0.01 mg/dL, a Globulin (C57BL/6j mice; 30 mg/kg) of 1.47 ± 0.07 and a BUN (C57BL/6j mice; 30 mg/kg) of 25 ± 1.32.
